Among the data in patent US20070049564A1 (Wyeth, priority 2005, published 2007) are MIC, ED50 and Cmax values, retold here.

In data set [1] the test system is E. coli, tet(A-D), efflux. Briefly: In vitro activity (MIC), strain groups.
Protocol: (§1) Antimicrobial susceptibility testing. The in vitro activities of the antibiotics are determined by the broth microdilution method as recommended by the National Committee for Clinical Laboratory Standards (NCCLS) (1). Mueller-Hinton II broth (MHBII)(BBL Cockeysville, Md.) is the medium employed in the testing procedures. Microtiter plates containing serial dilutions of each antimicrobial agent are inoculated with each organism to yield the appropriate density (10^5 CFU/ml) in a 100 μl final volume. The plates are incubated for 18-22 hours at 35° C. in ambient air.
Representative compounds were first incubated in mouse serum for an hour prior to the in vitro testing against a panel of selected gram-positive and gram-negative bacteria strains. All compounds were also pre-incubated in water for an hour prior to testing as control. Representative compounds of Formula I were incubated in human serum prior to MIC determination.
The subject of another data set is Staph. aureus Smith. Briefly: In vitro activity (MIC) against Staph. aureus Smith. It is filed as cell-based. The conditions noted are these: Staphylococcus aureus.
For a further data set, the system named is E. coli #311. Briefly: In vivo activity (oral, iv; ED50) against E. coli in mice. The settings on record: Escherichia coli. The source says: . […] Smith and E. Coli #311 in mammals.
Results of the tests (MIC, oral and IV) are list in Table 7.

For another data set, the system named is Enterococcus spp. Briefly: In vitro activity (MIC), strain groups. The arrangement: MIC: unit not given beside the values.
Data set [2] relates to E. coli, tet (M,S,O) Tet (M). Briefly: In vitro activity (MIC), strain groups. The conditions noted are these: Human Serum.
Protocol: as §1
(§2) Presented in Tables I-XIII are representative compounds of Formula I which were evaluated against a panel of 40 selected gram-positive and gram-negative bacteria strains by pre-incubation in water, mouse serum or human serum. Representative compounds were first incubated in mouse serum for an hour prior to the in vitro testing against a panel of selected gram-positive and gram-negative bacteria strains. All compounds were also pre-incubated in water for an hour prior to testing as control. Representative compounds of Formula I were incubated in human serum prior to MIC determination.
The test system of another data set is Streptococcus spp. Briefly: In vitro activity (MIC), strain groups. The arrangement: MIC: unit not given beside the values.
The next data set concerns E. coli. Briefly: In vitro activity (MIC) against E. coli (Table 7). The class given is cell-based. The settings on record: Escherichia coli.
The subject of another data set is Salmonella spp. GC 566. Briefly: MIC, broth microdilution. The conditions noted are these: Salmonella, SPP.GC566, Salmonella spp. GC 566.
A further data set deals with Salmonella spp. GC 235. Briefly: MIC, broth microdilution. The conditions noted are these: Salmonella, SPP.GC235, Salmonella spp. GC 235.
The next data set has as its system S. cholerasius GC 1355. Briefly: MIC, broth microdilution. The settings on record: S. cholerasius GC 1355.
Data set [3] can be described thus: Pharmacokinetics in monkey, IV 2 mg/kg and oral 10 mg/kg. The conditions noted are these: Oral - MONKEY 10 mg/kg. It is filed as in vivo.
Where [4] appears, read: single intravenous dose (SIV), read-out: ED50 E. coli #311 SIV.
Where [5] appears, read: single oral dose (SOD), read-out: ED50 E. coli #311 SOD.
[6] abbreviates: single intravenous dose, mice, Table 7, read-out: ED50 SIV (E. coli).
The mark [7] stands for this setting: single oral dose, mice, Table 7, read-out: ED50 SOD (E. coli).

In brackets after ≈: the same amount, converted by molar mass. Read-outs that look alike come from different tables or passages of the source. Some results are limits rather than exact numbers.

Protocol for Enterococcus spp.: as §1, §2
Protocol for Salmonella spp. GC 235: as §1
Representative compounds were first incubated in mouse serum for an hour prior to the in vitro testing against a panel of selected gram-positive and gram-negative bacteria strains. All compounds were also pre-incubated in water for an hour prior to testing as control.
Protocol for Streptococcus spp.: as §1, §2

For the compound `CCCN(CC(=O)Nc1cc(N(C)C)c2c(c1O)C(=O)C1=C(O)[C@]3(O)C(=O)C(C(N)=O)=C(O)[C@@H](N(C)C)[C@@H]3C[C@@H]1C2)C(=O)OCOC(=O)c1ccsc1` [Example 27, ({[(2-{[(5aR,6aS,7S,10aS)-9-(aminocarbonyl)-4,7-bis(dimethylamino)-1,8,10a,11-tetrahydroxy-10,12-dioxo-5,5a,6,6a,7,10,10a,12-octahydrotetracen-2-yl]amino}-2-oxoethyl)(propyl)amino]carbonyl}oxy)methyl thiophene-3-carboxylate], the MIC is 4-16 in [1] (Human Serum); 0.5-1 in [1] (Mouse Serum); 0.12 µg/mL (≈ 0.159 µM) against Staph. aureus Smith (Table 8); 0.5-2 against Enterococcus spp. (Human Serum); 0.12-1 with Enterococcus spp. (Mouse Serum); 0.12-1 against Enterococcus spp. (water). In addition, the MIC is 4-8 in [2], 0.12-2 in the data set on Streptococcus spp. (Human Serum), <0.06-0.12 against Streptococcus spp. (Mouse Serum) and <0.06-0.12 with Streptococcus spp. (water). Moreover, the values for the ED50 in the data set with E. coli #311 (setting [4]) and with E. coli #311 (setting [5]) were more than 2 mg/kg and more than 32 mg/kg, respectively.

As for `CCCN(CC(=O)Nc1cc(N(C)C)c2c(c1O)C(=O)C1=C(O)[C@]3(O)C(=O)C(C(N)=O)=C(O)[C@@H](N(C)C)[C@@H]3C[C@@H]1C2)C(=O)OCOC(=O)c1ccc(C)cc1` [Example 5, ({[(2-{[(5aR,6aS,7S,10aS)-9-(aminocarbonyl)-4,7-bis(dimethylamino)-1,8,10a,11-tetrahydroxy-10,12-dioxo-5,5a,6,6a,7,10,10a,12-octahydrotetracen-2-yl]amino}-2-oxoethyl)(propyl)amino]carbonyl}oxy)methyl 4-methylbenzoate], the MIC is 1 µg/mL (≈ 1.31 µM) with Staph. aureus Smith (Table 8); more than 64 µg/mL against E. coli; 4 µg/mL (≈ 5.24 µM) in the data set with Salmonella spp. GC 566 (Mouse Serum pre-incubation); 64 µg/mL (≈ 83.8 µM) against Salmonella spp. GC 566 (Water pre-incubation); 2 µg/mL (≈ 2.62 µM) against Salmonella spp. GC 235 (Mouse Serum pre-incubation); 32 µg/mL (≈ 41.9 µM) in the data set on Salmonella spp. GC 235 (Water pre-incubation). Moreover, the MIC with S. cholerasius GC 1355 (Mouse Serum pre-incubation) was 16 µg/mL (≈ 20.9 µM); with S. cholerasius GC 1355 (Water pre-incubation) it was more than 64 µg/mL. Further, the values for the ED50 in the data set with E. coli #311 (setting [6]) and in the data set on E. coli #311 (setting [7]) were 3.17 mg/kg and more than 64 mg/kg, respectively.

For `CCC(C)(C)C(=O)OCOC(=O)N(CC(=O)Nc1cc(N(C)C)c2c(c1O)C(=O)C1=C(O)[C@]3(O)C(=O)C(C(N)=O)=C(O)[C@@H](N(C)C)[C@@H]3C[C@@H]1C2)C(C)(C)C` [Example 44, ({[(2-{[(5aR,6aS,7S,10aS)-9-(aminocarbonyl)-4,7-bis(dimethylamino)-1,8,10a,11-tetrahydroxy-10,12-dioxo-5,5a,6,6a,7,10,10a,12-octahydrotetracen-2-yl]amino}-2-oxoethyl)(tert-butyl)amino]carbonyl}oxy)methyl 2,2-dimethylbutanoate], the minimum inhibitory concentration (MIC) against Staph. aureus Smith (Table 6) was 4 µg/mL (≈ 5.28 µM); in the data set on E. coli, more than 64 µg/mL. Further, the ED50 in the data set with E. coli #311 (setting [4]) is 2.85 mg/kg; in the data set with E. coli #311 (setting [6]) it was 2.85 mg/kg; in the data set on E. coli #311 (setting [5]) it was 42.8 mg/kg; in the data set on E. coli #311 (setting [7]) it was 42.8 mg/kg.

As for `CCC(=O)OCOC(=O)N(CC(=O)Nc1cc(N(C)C)c2c(c1O)C(=O)C1=C(O)[C@]3(O)C(=O)C(C(N)=O)=C(O)[C@@H](N(C)C)[C@@H]3C[C@@H]1C2)C(C)(C)C` [Example 49, ({[(2-{[(5aR,6aS,7S,10aS)-9-(aminocarbonyl)-4,7-bis(dimethylamino)-1,8,10a,11-tetrahydroxy-10,12-dioxo-5,5a,6,6a,7,10,10a,12-octahydrotetracen-2-yl]amino}-2-oxoethyl)(tert-butyl)amino]carbonyl}oxy)methyl propionate], the results for the MIC in the data set on Staph. aureus Smith (Table 6) and in the data set with E. coli were 0.25 µg/mL (≈ 0.349 µM) and 64 µg/mL (≈ 89.4 µM), respectively. The ED50 in the data set with E. coli #311 (setting [4]) came out at 2.2 mg/kg; in the data set on E. coli #311 (setting [6]), 2.2 mg/kg; in the data set on E. coli #311 (setting [5]), 49 mg/kg; in the data set with E. coli #311 (setting [7]), 49 mg/kg.

`CCCCN(CC(=O)Nc1cc(N(C)C)c2c(c1O)C(=O)C1=C(O)[C@]3(O)C(=O)C(C(N)=O)=C(O)[C@@H](N(C)C)C3CC1C2)C(=O)OCOC(=O)C(C)C` (stereo partly drawn) [Example 1, ({[(2-{[(7S,10aS)-9-(aminocarbonyl)-4,7-bis(dimethylamino)-1,8,10a,11-tetrahydroxy-10,12-dioxo-5,5a,6,6a,7,10,10a,12-octahydrotetracen-2-yl]amino}-2-oxoethyl)(butyl)amino]carbonyl}oxy)methyl 2-methylpropanoate]: the minimum inhibitory concentration (MIC) in the data set with Staph. aureus Smith (Table 8) was determined as 4 µg/mL (≈ 5.48 µM); in the data set with Salmonella spp. GC 566 (Mouse Serum pre-incubation) it was 2 µg/mL (≈ 2.74 µM); against Salmonella spp. GC 566 (Water pre-incubation) it was 64 µg/mL (≈ 87.7 µM); against Salmonella spp. GC 235 (Mouse Serum pre-incubation) it was 1 µg/mL (≈ 1.37 µM); in the data set on Salmonella spp. GC 235 (Water pre-incubation), 64 µg/mL (≈ 87.7 µM); with S. cholerasius GC 1355 (Mouse Serum pre-incubation), 8 µg/mL (≈ 11 µM). This compound yielded an MIC with S. cholerasius GC 1355 (Water pre-incubation) of more than 64 µg/mL. For the same compound, the Cmax entry in [3] is listed as “no levels detected”.

For `CC(C)C(=O)OCOC(=O)N(CC(=O)Nc1cc(N(C)C)c2c(c1O)C(=O)C1=C(O)[C@]3(O)C(=O)C(C(N)=O)=C(O)[C@@H](N(C)C)[C@@H]3C[C@@H]1C2)C(C)(C)C` [Example 45, ({[(2-{[(5aR,6aS,7S,10aS)-9-(aminocarbonyl)-4,7-bis(dimethylamino)-1,8,10a,11-tetrahydroxy-10,12-dioxo-5,5a,6,6a,7,10,10a,12-octahydrotetracen-2-yl]amino}-2-oxoethyl)(tert-butyl)amino]carbonyl}oxy)methyl 2-methylpropanoate], the values for the MIC against Staph. aureus Smith (Table 6) and against E. coli were 1 µg/mL (≈ 1.37 µM) and 64 µg/mL (≈ 87.7 µM), respectively. Further, the ED50 stood at 1.8 mg/kg in the data set on E. coli #311 (setting [4]), 1.8 mg/kg in the data set with E. coli #311 (setting [6]), 64 mg/kg in the data set with E. coli #311 (setting [5]) and 64 mg/kg with E. coli #311 (setting [7]).

For `CN(C)c1cc(NC(=O)CN(C(=O)OCOC(=O)C2CCCCC2)C(C)(C)C)c(O)c2c1C[C@H]1C[C@H]3[C@H](N(C)C)C(O)=C(C(N)=O)C(=O)[C@@]3(O)C(O)=C1C2=O` [Example 50, ({[(2-{[(5aR,6aS,7S,10aS)-9-(aminocarbonyl)-4,7-bis(dimethylamino)-1,8,10a,11-tetrahydroxy-10,12-dioxo-5,5a,6,6a,7,10,10a,12-octahydrotetracen-2-yl]amino}-2-oxoethyl)(tert-butyl)amino]carbonyl}oxy)methyl cyclohexanecarboxylate], the MIC against Staph. aureus Smith (Table 6) is 0.5 µg/mL (≈ 0.649 µM); against E. coli, more than 64 µg/mL. For the same compound, the ED50 in the data set with E. coli #311 (setting [4]) is 2.59 mg/kg; with E. coli #311 (setting [6]) it was 1.7 mg/kg; in the data set on E. coli #311 (setting [5]) it was more than 64 mg/kg; in the data set on E. coli #311 (setting [7]) it was 29.8 mg/kg.

Turning to `CC(C)CC(=O)OCOC(=O)N(CC(=O)Nc1cc(N(C)C)c2c(c1O)C(=O)C1=C(O)[C@]3(O)C(=O)C(C(N)=O)=C(O)[C@@H](N(C)C)[C@@H]3C[C@@H]1C2)C(C)(C)C` [Example 53, ({[(2-{[(5aR,6aS,7S,10aS)-9-(aminocarbonyl)-4,7-bis(dimethylamino)-1,8,10a,11-tetrahydroxy-10,12-dioxo-5,5a,6,6a,7,10,10a,12-octahydrotetracen-2-yl]amino}-2-oxoethyl)(tert-butyl)amino]carbonyl}oxy)methyl 3-methylbutanoate], the MIC in the data set with Staph. aureus Smith (Table 6) was 1 µg/mL (≈ 1.34 µM); against E. coli, 32 µg/mL (≈ 43 µM). For the same compound, the 50% effective dose (ED50) in the data set with E. coli #311 (setting [4]) was 2.25 mg/kg; with E. coli #311 (setting [6]), 2.25 mg/kg; with E. coli #311 (setting [5]) it was 46.9 mg/kg; in the data set on E. coli #311 (setting [7]), 46.9 mg/kg.
